According to PubChem BioAssay AID179 (DTP/NCI, 2004):
pEC50, pIC50: −log10 of the molar value. Where “and” joins values, the source holds several entries; their conditions need not be identical. Identical values can stand only once. Calls of active or inactive are those of the source.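 The calls were made as follows: active = compounds giving half or more protection of infected cells from virus-caused growth loss, again on retest; inactive = the rest.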

System: CEM cells HIV-1 protection, formazan growth assay
Assay: NCI AIDS Antiviral Assay
Details: for pIC50: measured here: growth of uninfected CEM cells
Method in brief: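 Human CEM cells, uninfected and HIV-1-infected, exposed to five drug concentrations; growth measured by soluble formazan assay and scored as percent protection from infection, with protecting compounds retested.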

CC1=C(C(=O)NCc2ccccc2)C(c2ccc(C3C(C(=O)NCc4ccccc4)=C(C)NC(C)=C3C(=O)NCc3ccccc3)cc2)C(C(=O)NCc2ccccc2)=C(C)N1
pEC50: < 4.92 | pIC50: 5.10

O=C(Nc1ccc(C2=NCCN2)cc1)c1cncc(C(=O)Nc2ccc(C3=NCCN3)cc2)c1
pEC50: 5.01 | pIC50: 3.88

Cc1nn(C(=O)c2ccc(Cl)cc2)c2c1C(c1ccc(O)cc1)SC(N)=N2 (stereo not given)
pEC50: < 3.70 | pIC50: < 3.70

CC(=O)/C=C/CCC1CCC(=O)C1(C)C(=O)OC(C)(C)C (stereo not given)
pEC50: < 3.94 | pIC50: 4.40

O=Cc1ccccc1CCn1c(=O)c2cc3c(=O)n(CCc4ccccc4C=O)c(=O)c3cc2c1=O
pEC50: < 4.97 | pIC50: < 4.97

CCOP(=O)(OCC)C1(O)CC(n2cc(C)c(=O)[nH]c2=O)OC1CO (stereo not given)
pEC50: < 3.70 | pIC50: < 3.70

CN(C)c1ccc(N=O)c(O)c1
pEC50: < 3.70 | pIC50: 5.06

O=C1N(Cl)C2C(N1Cl)N(Cl)C(=O)N2Cl (stereo not given)
pEC50: < 3.70 | pIC50: < 3.70

COC1(OC)N=C(N)C2(C#N)C3(C(=O)N(C(C)C)N=C3C)C12C#N (stereo not given)
pEC50: < 3.70 | pIC50: < 3.70

CCCCCCCCCCCCC(=O)NC1=C(O)c2ccccc2C(=O)C1=O
outcome: inactive

O=C(OC1Cc2c(O)cc(O)cc2OC1c1ccc(O)c(O)c1)c1cc(O)c(O)c(O)c1 (stereo not given)
pEC50: < 4.25 | pIC50: 4.31

COC(=O)C1CC(C=[N+](C)C)=C(SC)N1C(=O)OCc1ccccc1 (stereo not given)
pEC50: < 3.70 | pIC50: 3.72

O=C1c2nn(-c3ccccc3)nc2C(c2ccccc2)N1c1ccccc1 (stereo not given)
pEC50: < 4.83 | pIC50: < 4.83

CCCCCC(=O)c1ccc2[nH]c3c(C)cc([N+](=O)[O-])c(C)c3c2c1
pEC50: < 5.37 | pIC50: < 5.37

OC1(c2ccccc2)CC2CCC(C1)N2CCc1ccccc1 (stereo not given)
pEC50: < 3.70 | pIC50: 3.99

O=C(O/C=C\OC1CCCC1(c1ccccc1)c1ccccc1)c1ccccc1 (stereo not given)
pEC50: < 3.70 | pIC50: 5.42

CCCCCC[N+](C)(C)Cc1ccc(C[N+](C)(C)CCCCCC)cc1
outcome: inactive

CCOC1N(C2CC(N=[N+]=[N-])C(CO)O2)C(=O)NC(=O)C1(C)Br (stereo not given)
pEC50: 8.09 and 8.20 | pIC50: 4.65 and 4.76

C#CCN(N=O)C(=O)NCCCCC(NC(=O)OCc1ccccc1)C(=O)OCc1ccccc1 (stereo not given)
pEC50: < 4.55 | pIC50: < 4.55

CNC1C(O)C(OC2C(N)CC(N)C(OC3OC(CN)=CCC3N)C2O)OCC1(C)O (stereo not given)
outcome: inactive

O=c1c2ccccc2[nH]c2c(Cl)cc(Cl)c(NC3CCCCC3)c12
pEC50: < 3.70 | pIC50: 4.55

O=C1C=C2C[C@H]3C(O)C[C@]2(O1)[C@H]1CCCN31 (stereo not given in full)
pEC50: < 3.95 | pIC50: < 3.95

CN(C)CCCNc1ccc2c(=O)n(CCN(C)C)c(=O)n3c4ccccc4c(=O)c1c23
pEC50: < 6.70 | pIC50: 7.11

COc1cc2nc(Sc3c([N+](=O)[O-])ncn3C)[nH]c2cc1OC
pEC50: < 3.41 | pIC50: 5.26

CCOC(=O)C1=C(N)SCCC1
pEC50: < 2.88 | pIC50: 3.59

CCCc1nc2c(nc1C)C(=O)C=CC2=O
pEC50: < 3.08 | pIC50: 4.77

CCOP(=O)(OCC)/C(=C/c1cccs1)CC(C)=O
pEC50: < 3.70 | pIC50: < 3.70

CN(C)c1ccc(/C=C(\NC(=O)c2ccccc2)C(=O)NC(Cc2c[nH]c3ccccc23)C(=O)O)cc1 (stereo not given)
pEC50: < 4.00 | pIC50: < 4.00

CCCCCCCCCC1OC(CCCCCCCCC)OC(CCCCCCCCC)O1 (stereo not given)
pEC50: < 3.70 | pIC50: < 3.70

O=C(Nc1nc2ccc([N+](=O)[O-])cc2s1)C(=O)C(C(=O)c1ccccc1F)C1OC(=O)c2ccccc21 (stereo not given)
pEC50: < 3.88 | pIC50: 4.74

CC1(C)CC(=O)C(CC(C(=O)C(=O)Nc2cc(C(F)(F)F)ccc2Cl)C(=O)c2ccco2)C(=O)C1 (stereo not given)
pEC50: < 4.29 | pIC50: 4.37

CCCCN(CCCC)C(=O)C(=O)C(C#N)c1ccc(C)cc1 (stereo not given)
outcome: inactive

N#Cc1ccc2oc3ccc(C#N)cc3c(=O)c2c1
outcome: inactive

O=C1C(c2ccc([N+](=O)[O-])cc2)=[N+]([O-])c2ccc([N+](=O)[O-])cc21
outcome: inactive

COc1ccccc1-n1cnc2c1NC(C)(C)N=C2C(N)=O
pEC50: < 3.70 | pIC50: < 3.70

CCc1cccc(C)c1NC(=O)NS(=O)(=O)c1ccc(C)cc1
pEC50: < 3.12 | pIC50: < 3.12

O=C(/N=C/c1c(O)c2ccccc2oc1=O)NC1CCCCC1
pEC50: < 4.38 | pIC50: < 4.38

NC(=O)C12C3C4C1C1C2C3C41C(N)=O (stereo not given)
pEC50: < 4.15 | pIC50: < 4.15

O=C(OCCN1CCCCC1)c1cc2ccccc2[nH]1
pEC50: < 3.70 | pIC50: < 3.70

CCN(CC)C(=S)N=N/C(C)=C1/C=CC=CN1O
pEC50: < 3.70 | pIC50: 5.96

CN1CCN(CC(=O)Nc2cccc3ccccc23)CC1
pEC50: < 3.70 | pIC50: < 3.70

O=C(CN1CCC(O)(c2ccc(F)cc2)CC1)N1CCN(C/C=C/c2ccccc2)CC1
pEC50: < 3.70 | pIC50: 4.54

O=C(O)C(CSSCC(NC(=O)C(F)(F)F)C(=O)O)NC(=O)C(F)(F)F (stereo not given)
pEC50: < 3.70 | pIC50: < 3.70

CC(CNN=C(N)N)NN=C(N)N (stereo not given)
pEC50: < 3.70 | pIC50: < 3.70

O=C1NC(=O)C(=Cc2ccc(F)cc2)C(=O)N1
pEC50: < 3.95 | pIC50: < 3.95

c1ccc(Cc2cccc3cc(-c4ccc(-c5ccccc5)cc4)[nH]c23)cc1
pEC50: < 3.70 | pIC50: 3.78

CC1CC2C(=O)N(c3ccccc3)C(=O)C2c2c1c1ccccc1n2Cc1ccccc1 (stereo not given)
outcome: inactive

COc1ccccc1CNCc1nc2ccccc2[nH]1
pEC50: < 3.70 | pIC50: 3.81

N#C/C(=C\c1c(Cl)cccc1Cl)c1ccc([N+](=O)[O-])cc1
pEC50: < 3.70 | pIC50: < 3.70

CCN(CC)c1c(C(=O)/C=C/c2ccc(F)cc2)c(-c2ccccc2)nn(C)c1=O
pEC50: < 4.47 | pIC50: 5.14

Nc1ccc(C2c3ccccc3Oc3ccccc32)cc1
pEC50: < 3.70 | pIC50: 4.51

COc1cc(/C=C2\C(=O)N(c3ccccc3Cl)C(c3ccccc3)S2(=O)=O)cc(OC)c1OC (stereo not given)
pEC50: < 3.70 | pIC50: 4.07

CCC1=NS(=O)(=O)c2c(ncn2C)N1
pEC50: < 2.94 | pIC50: < 2.94

CC(=O)NCCCCN(CCCNC(C)=O)C(=O)CNS(=O)(=O)c1cccc2c(N(C)C)cccc12
pEC50: < 3.70 | pIC50: < 3.70

N#C/C1=C(\C#N)N=Cc2ccccc2NCCNc2ccccc2C=N1
pEC50: < 3.70 | pIC50: < 3.70

Cc1nc2c(=O)[nH]cnc2o1
pEC50: < 3.24 | pIC50: < 3.24

C=CC[C@@]1(C#N)C[C@H](C[C@]2(C#N)C[C@H](CCl)OC(C)(C)O2)OC(C)(C)O1
pEC50: < 3.70 | pIC50: 3.97

COc1ccc(C2C(C#N)=C(S)N(C3OC(COC(C)=O)C(OC(C)=O)C(OC(C)=O)C3OC(C)=O)C(c3ccccc3)=C2C(C)=O)cc1 (stereo not given)
pEC50: < 3.70 | pIC50: 4.60

N#CC1(C#N)C(C#N)(C#N)C12CCCCCC2
outcome: inactive

N#CC(C#N)=C(N)/C(C#N)=C/c1ccc2[nH]ccc2c1
pEC50: < 3.70 | pIC50: < 3.70

CC1=C(C(=O)NCc2ccccc2)C(c2ccccc2C)C(C(=O)NCc2ccccc2)=C(C)N1
pEC50: < 4.67 | pIC50: < 4.67

CCc1ccc(/C(C#N)=C/c2cccc3ccccc23)cc1
pEC50: < 3.70 | pIC50: 4.57

Cc1c2ccccc2nc(CN2CCOCC2)[n+]1[O-]
pEC50: < 3.70 | pIC50: < 3.70

N=c1n(CC(=O)NC23CC4CC(CC(C4)C2)C3)c2ccccc2n1Cc1ccc(Cl)cc1
pEC50: < 4.27 | pIC50: 5.32
